pKi: −log10 of the molar value. Where a name gives a salt, the structure may show the parent alone. Read-outs that look alike come from different tables or passages of the source.
Experiments:
human α-thrombin = human α-thrombin (Homo sapiens (Human), UniProt P00734); test: Enzymatic assay for thrombin (Boc-VPR-AMC substrate); type: biochemical; conditions: for pKi: read-out: Thrombin Ki; for Ki: Thrombin Ki (μM)
MASP-2 (CCP1-CCP2-SP) = MASP-2 (CCP1-CCP2-SP) (Homo sapiens (Human), UniProt O00187); test: biochemical; type: biochemical
[1] = MASP-2 inhibition versus thrombin
[2] = selectivity for MASP-2 inhibition versus thrombin

MASP-2 (CCP1-CCP2-SP), sequence (O00187 445-686): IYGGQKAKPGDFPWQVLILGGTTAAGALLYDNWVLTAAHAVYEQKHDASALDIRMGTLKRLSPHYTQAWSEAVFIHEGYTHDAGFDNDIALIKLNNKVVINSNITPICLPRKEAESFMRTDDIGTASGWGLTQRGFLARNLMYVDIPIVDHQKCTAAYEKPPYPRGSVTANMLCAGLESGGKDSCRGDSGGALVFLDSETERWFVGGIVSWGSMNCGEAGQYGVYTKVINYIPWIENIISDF

Compound	pKi (human α-thrombin)	MASP-2 vs. thrombin selectivity (MASP-2 (CCP1-CCP2-SP); [1])	pKi (MASP-2 (CCP1-CCP2-SP); read-out: MASP-2 Ki)	pKi (human α-thrombin; +Zn)	pKi (MASP-2 (CCP1-CCP2-SP))	pKi (MASP-2 (CCP1-CCP2-SP); +Zn, read-out: MASP-2 Ki)	further results
C[C@H](NC(=O)[C@@H](CCc1ccccc1)NC1CCCCC1)C(=O)NCc1ccc(C(=N)N)cc1 [compound 1130, (R)—N—((S)-1-((4-Carbamimidoylbenzyl)amino)-1-oxopropan-2-yl)-2-(cyclohexylamino)-4-phenylbutanamide Dihydrochloride]	> 6.30	−− (less than 1.0-fold)	> 6.30	–	–	–	–
N=C(N)c1ccc2[nH]c(-c3cc4ccccc4cn3)nc2c1 [compound 2014, 2-(isoquinolin-3-yl)-1H-benzo[d]imidazole-5-carboximidamide dihydrochloride]	–	–	–	> 5.60	< 4.60	> 6.30	pKi (human α-thrombin; +EDTA): > 4.60; MASP-2 versus thrombin selectivity (MASP-2 (CCP1-CCP2-SP); +Zn): +++ (+Zn) (25 to 100-fold)
Cc1cccc(-c2nc3cc(C(=N)N)ccc3[nH]2)n1 [compound 2003, 2-(6-methylpyridin-2-yl)-1H-benzo[d]imidazole-5-carboximidamide]	–	–	–	> 5.60	< 4.60	> 7.30	Ki (human α-thrombin; +EDTA): > 25 µM; MASP-2 versus thrombin selectivity (MASP-2 (CCP1-CCP2-SP); +Zn): +++ (+Zn) (25 to 100-fold)
CCc1ccc(-c2nc3cc(C(=N)N)ccc3[nH]2)nc1 [compound 2007, 2-(5-ethylpyridin-2-yl)-1H-benzo[d]imidazole-5-carboximidamide dihydrochloride]	–	–	–	> 5.60	< 4.60	> 6.30	Ki (human α-thrombin; +EDTA): > 25 µM; MASP-2 versus thrombin selectivity (MASP-2 (CCP1-CCP2-SP); +Zn): ++ (+Zn) (5.0 to 25-fold)
C[C@H](NC(=O)[C@@H](CCc1ccccc1)NCc1ccc2cc(O)ccc2c1)C(=O)NCc1ccc(C(=N)N)cc1 [compound 1256, (R)—N—((S)-1-((4-Carbamimidoylbenzyl)amino)-1-oxopropan-2-yl)-2-(((6-hydroxynaphthalen-2-yl)methyl)amino)-4-phenylbutanamide]	> 6.30	–	> 6.30	–	–	–	MASP-2 vs. thrombin selectivity (MASP-2 (CCP1-CCP2-SP); [2]): * (≥1.0 to <5.0-fold)
C[C@H](NC(=O)[C@H](N)CCc1ccccc1)C(=O)NCc1cc(Cl)ccc1-n1cnnn1 [compound 1325, (R)-2-amino-N—((S)-1-((5-chloro-2-(1H-tetrazol-1-yl)benzyl)amino)-1-oxopropan-2-yl)-4-phenylbutanamide]	> 6.30	–	–	–	–	–	MASP-2 vs. thrombin selectivity (MASP-2 (CCP1-CCP2-SP); [2]): −− (<1.0-fold)
COc1cccc([C@H]2CN[C@@H](C(=O)N[C@@H](C)C(=O)NCc3ccc(C(=N)N)cc3)C2)c1 [compound 1262, (2R,4S)—N—((S)-1-((4-Carbamimidoylbenzyl)amino)-1-oxopropan-2-yl)-4-(3-methoxyphenyl)pyrrolidine-2-carboxamide]	–	–	> 6.30	–	–	–	Ki (human α-thrombin): 0.5 to 2.5 µM; MASP-2 vs. thrombin selectivity (MASP-2 (CCP1-CCP2-SP); [2]): *** (≥25 to <100-fold)
N=C(N)c1ccc(CNC(=O)[C@@H]2CCCN2C(=O)[C@H](N)C2CCCCC2)cc1 [compound 1027]	> 6.30	−− (less than 1.0-fold)	> 6.30	–	–	–	–
CCOc1ccnc(-c2nc3cc(C(=N)N)ccc3[nH]2)c1 [compound 2012, 2-(4-ethoxypyridin-2-yl)-1H-benzo[d]imidazole-5-carboximidamide dihydrochloride]	–	–	–	> 6.30	< 4.60	> 7.30	Ki (human α-thrombin; +EDTA): > 25 µM; MASP-2 versus thrombin selectivity (MASP-2 (CCP1-CCP2-SP); +Zn): + (+Zn) (1.0 to 5.0-fold)
Cc1cccnc1-c1nc2cc(C(=N)N)ccc2[nH]1 [compound 2004, 2-(3-methylpyridin-2-yl)-1H-benzo[d]imidazole-5-carboximidamide dihydrochloride]	–	–	–	> 6.30	< 4.60	> 6.30	Ki (human α-thrombin; +EDTA): > 25 µM; MASP-2 versus thrombin selectivity (MASP-2 (CCP1-CCP2-SP); +Zn): + (+Zn) (1.0 to 5.0-fold)
CCc1cccc(-c2nc3cc(C(=N)N)ccc3[nH]2)n1 [compound 2008, 2-(6-ethylpyridin-2-yl)-1H-benzo[d]imidazole-5-carboximidamide dihydrochloride]	–	–	–	> 5.00	< 4.60	> 6.30	Ki (human α-thrombin; +EDTA): > 25 µM; MASP-2 versus thrombin selectivity (MASP-2 (CCP1-CCP2-SP); +Zn): +++ (+Zn) (25 to 100-fold)
C[C@@H](C(=O)NCc1ccc(C(=N)N)cc1)N(C)C(=O)[C@H](NCC(=O)O)C1CCCCC1 [compound 1107]	> 6.30	−− (less than 1.0-fold)	> 6.30	–	–	–	–
COC(=O)NC(=N)c1ccc(CNC(=O)[C@H](C)NC(=O)[C@H]2C[C@H](c3ccccc3)CN2)cc1 [compound 1258, Methyl (imino(4-(((S)-2-((2R,4R)-4-phenylpyrrolidine-2-carboxamido)propanamido)methyl)phenyl)methyl)carbamate]	< 4.60	–	–	–	5.00 to 5.60	–	–
C[C@H](NC(=O)[C@@H](CCc1ccccc1)NCc1ccc(N2CCN(C)CC2)cc1)C(=O)NCc1ccc(C(=N)N)cc1 [compound 1152]	> 6.30	* (1.0 to 5.0-fold)	> 6.30	–	–	–	–
C[C@H](NC(=O)[C@H](N)CCc1ccc(F)c(F)c1)C(=O)NCc1ccc(C(=N)N)cc1 [compound 1085]	> 6.30	** (5.0 to 25-fold)	> 6.30	–	–	–	–
COc1cc(CC[C@@H](N)C(=O)N[C@@H](C)C(=O)NCc2ccc(C(=N)N)cc2)cc(OC)c1 [compound 1112]	> 6.30	** (5.0 to 25-fold)	> 6.30	–	–	–	–
N=C(N)c1ccc2[nH]c(Cc3ccccn3)nc2c1 [compound 2002, 2-(Pyridin-2-ylmethyl)-1H-benzo[d]imidazole-5-carboximidamide Dihydrochloride]	–	–	–	> 4.60	< 4.60	> 5.60	Ki (human α-thrombin; +EDTA): > 25 µM
N=C(N)c1ccc(CNC(=O)[C@@H]2CCN2C(=O)[C@H](O)C2CCCCC2)cc1 [compound 1020]	> 6.30	−− (less than 1.0-fold)	> 6.30	–	–	–	–
Cc1cccc([C@H]2CN[C@@H](C(=O)N[C@@H](C)C(=O)NCc3cc(Cl)ccc3O)C2)c1 [compound 1254, (2R,4S)—N—((S)-1-((5-Chloro-2-hydroxybenzyl)amino)-1-oxopropan-2-yl)-4-(m-tolyl)pyrrolidine-2-carboxamide]	–	–	> 6.30	–	–	–	Ki (human α-thrombin): 10 to 25 µM; MASP-2 vs. thrombin selectivity (MASP-2 (CCP1-CCP2-SP); [2]): *** (≥25 to <100-fold)
C[C@H](NC(=O)[C@H](N)CCc1ccc(F)cc1F)C(=O)NCc1ccc(C(=N)N)cc1 [compound 1084]	> 6.30	** (5.0 to 25-fold)	> 6.30	–	–	–	–
N=C(N)c1ccc(CNC(=O)[C@@H]2CCN2C(=O)[C@H](N)CCc2ccccc2)cc1 [compound 1038]	> 6.30	* (1.0 to 5.0-fold)	> 6.30	–	–	–	–
CCCCCCOC(=O)NC(=N)c1ccc(CNC(=O)[C@H](C)NC(=O)[C@H]2C[C@H](c3ccccc3)CN2)cc1 [compound 1260, Hexyl (imino(4-(((S)-2-((2R,4R)-4-phenylpyrrolidine-2-carboxamido)propanamido)methyl)phenyl)methyl)carbamate]	< 4.60	–	5.00 to 5.60	–	–	–	–
N=C(N)c1ccc(CNC(=O)[C@@H]2CCN2C(=O)[C@@H](CCc2ccccc2)NCC(=O)O)cc1 [compound 1124]	> 6.30	−− (less than 1.0-fold)	> 6.30	–	–	–	–
N=C(N)c1ccc2[nH]c(-c3ccc4ccccc4n3)nc2c1 [compound 2013, 2-(quinolin-2-yl)-1H-benzo[d]imidazole-5-carboximidamide dihydrochloride]	–	–	–	> 5.00	< 4.60	> 6.30	Ki (human α-thrombin; +EDTA): > 25 µM; MASP-2 versus thrombin selectivity (MASP-2 (CCP1-CCP2-SP); +Zn): ++++ (+Zn) (>100-fold)
